Measurements: ChEMBL document CHEMBL5036318, “Synthesis and Biological Evaluation of Phosphoester and Phosphorothioate Prodrugs of STING Agonist 3',3'-c-Di(2'F,2'dAMP)” (J Med Chem, 2021)

Key:
[1] = Drug uptake in human THP1-Dual cells at 125 uM incubated for 24 hrs by HPLC-LS analysis; assay type: ADME, cell-based
[2] = Drug uptake in human THP1-Dual cells at extra cellular concentration incubated for 24 hrs by HPLC-LS analysis; assay type: ADME, cell-based
[3] = target: Stimulator of interferon genes protein (Homo sapiens, UniProt Q86WV6, G230A/R293Q); assay: Activation of human STING QA mutant expressed in digitonin treated HEK293T cells co-expressing IRF3-activated ISRE assessed as IRF3 reporter activation by luciferase reporter gene assay; assay type: cell-based
Chain of Stimulator of interferon genes protein (Homo sapiens, UniProt Q86WV6, G230A/R293Q) (Q86WV6 whole entry G230A/R293Q): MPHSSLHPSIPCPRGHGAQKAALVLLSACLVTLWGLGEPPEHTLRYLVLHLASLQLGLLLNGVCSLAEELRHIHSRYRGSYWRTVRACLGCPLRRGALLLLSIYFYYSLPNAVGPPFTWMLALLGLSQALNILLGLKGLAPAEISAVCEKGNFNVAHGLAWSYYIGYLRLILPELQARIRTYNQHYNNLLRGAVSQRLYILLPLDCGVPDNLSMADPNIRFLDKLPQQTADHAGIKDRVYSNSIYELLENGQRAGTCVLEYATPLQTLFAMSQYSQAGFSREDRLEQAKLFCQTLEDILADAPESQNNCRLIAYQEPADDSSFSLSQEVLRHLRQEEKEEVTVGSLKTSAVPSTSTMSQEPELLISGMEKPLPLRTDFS

[4] = cells; settings: Homo sapiens, HEK-293T
Description: Activation of human STING REF mutant expressed in digitonin treated HEK293T cells co-expressing IRF3-activated ISRE assessed as IRF3 reporter activation by luciferase reporter gene assay

[5] = target: Stimulator of interferon genes protein (Homo sapiens, UniProt Q86WV6, G230A/R293Q/R71H); assay: Activation of human STING HAQ mutant expressed in digitonin treated HEK293T cells co-expressing IRF3-activated ISRE assessed as IRF3 reporter activation by luciferase reporter gene assay; assay type: cell-based
Chain of Stimulator of interferon genes protein (Homo sapiens, UniProt Q86WV6, G230A/R293Q/R71H) (Q86WV6 whole entry R71H/G230A/R293Q): as the sequence (Q86WV6 whole entry G230A/R293Q) above, with R71H counted along it

[6] = target: T1, Stimulator of interferon genes protein (Homo sapiens, UniProt Q86WV6); assay: Activation of wild-type human STING expressed in digitonin treated HEK293T cells co-expressing IRF3-activated ISRE assessed as IRF3 reporter activation by luciferase reporter gene assay; assay type: cell-based
T1 sequence (Q86WV6 whole entry): as the sequence (Q86WV6 whole entry G230A/R293Q) above, with A230G, Q293R counted along it

[7] = Activation of human STING Q mutant expressed in digitonin treated HEK293T cells co-expressing IRF3-activated ISRE assessed as IRF3 reporter activation by luciferase reporter gene assay; assay type: cell-based; settings: HEK-293T
[8] = target: T1, Stimulator of interferon genes protein; assay: Binding affinity to human STING expressed in […] cells assessed as change in melting temperature by Cell-based assay; settings: HEK293T, filed as activator
[9] = target: T1, Stimulator of interferon genes protein; assay: Binding affinity to wild type STING (unknown origin) assessed as change in melting temperature by differential scanning fluorimetry; settings: filed as activator
[10] = Induction of TNF-alpha production in healthy human PBMC incubated for 16 hrs; assay type: functional, tissue-based
[11] = target: T1, Stimulator of interferon genes protein; assay: Activation of wild-type human STING expressed in human THP1-Dual cells co-expressing IRF3-activated ISRE assessed as IRF3 reporter activation measured after 7 hrs by luciferase reporter gene assay; assay type: cell-based
[12] = Potency index, ratio of test compound EC50 to prodrug EC50 for induction of INF-gamma production in healthy human PBMC incubated for 16 hrs; assay type: functional
[13] = target: T1, Stimulator of interferon genes protein; assay: Activation of wild-type human STING expressed in HEK293T cells co-expressing IRF3-activated ISRE assessed as IRF3 reporter activation measured after 30 mins by luciferase reporter gene assay; assay type: cell-based
[14] = target: T1, Stimulator of interferon genes protein; assay: Activation of wild-type human STING expressed in digitonin treated human THP1-Dual cells co-expressing IRF3-activated ISRE assessed as IRF3 reporter activation measured after 30 mins by luciferase reporter gene assay; assay type: cell-based
[15] = Induction of INF-alpha production in healthy human PBMC incubated for 16 hrs; assay type: functional, tissue-based
[16] = Induction of INF-gamma production in healthy human PBMC incubated for 16 hrs; assay type: functional, tissue-based
[17] = target: T1, Stimulator of interferon genes protein; assay: Activation of wild-type human STING expressed in HEK293T cells co-expressing IRF3-activated ISRE assessed as IRF3 reporter activation measured after 7 hrs by luciferase reporter gene assay; assay type: cell-based
[18] = Stability in mouse plasma assessed as half life; assay type: ADME, cell-free
[19] = Potency index, ratio of test compound EC50 to prodrug EC50 for induction of INF-alpha production in healthy human PBMC incubated for 16 hrs; assay type: functional
[20] = Stability in human plasma assessed as half life; assay type: ADME, cell-free
[21] = Drug uptake in human THP1-Dual cells at 1.25 uM incubated for 2 hrs by HPLC-LS analysis; assay type: ADME, cell-based
[22] = Drug metabolism in human THP1-Dual cells assessed as 3',3'-c-di(2'F,2'dAMP) metabolite formation measured after 24 hrs by HPLC analysis; assay type: ADME, cell-based
[23] = Drug metabolism in human THP1-Dual cells assessed as 3',3'-c-di(2'F,2'dAMP) metabolite formation measured after 2 hrs by HPLC analysis; assay type: ADME, cell-based
[24] = Potency index, ratio of test compound EC50 to prodrug EC50 for induction of TNF-alpha production in healthy human PBMC incubated for 16 hrs; assay type: functional

Row | SMILES | EC50 [3] [nM] | EC50 [4] [nM] | EC50 [5] [nM] | EC50 [6] [nM] | EC50 [7] [nM] | ΔTm [9] [°C] | EC50 [10] [nM] | EC50 [11] [nM] | EC50 [13] [nM] | EC50 [14] [nM] | EC50 [15] [nM] | EC50 [16] [nM] | also measured
1 | [3H]c1nc2c(N)ncnc2n1[C@@H]1O[C@@H]2COP(=O)(O)O[C@H]3[C@@H](F)[C@H](n4c([3H])nc5c(N)ncnc54)O[C@@H]3COP(=O)(O)O[C@H]2[C@H]1F |  |  |  |  |  |  |  |  |  |  |  |  | Drug uptake [1]: Not Active; Drug uptake [2]: Not Active
2 | Nc1ncnc2c1ncn2[C@@H]1O[C@@H]2CO[P@](=O)(S)O[C@H]3[C@@H](F)[C@H](n4cnc5c(N)ncnc54)O[C@@H]3COP(=O)(O)O[C@H]2[C@H]1F | 70 | 920 | 130 | 7 | 450 | 8.9 |  |  |  |  |  |  | ΔTm [8]: 8.9 °C
3 | Nc1ncnc2c1ncn2[C@@H]1O[C@@H]2COP(=O)(O)O[C@H]3[C@@H](O)[C@H](n4cnc5c(N)ncnc54)O[C@@H]3COP(=O)(O)O[C@H]2[C@H]1O | 170 |  | 190 |  | 7090 |  |  |  |  |  |  |  | 
4 | CC(C)(C)C(=O)OCO[P@@]1(=O)OC[C@H]2O[C@@H](n3cnc4c(N)ncnc43)[C@H](F)[C@@H]2O[P@](=O)(OCOC(=O)C(C)(C)C)OC[C@H]2O[C@@H](n3cnc4c(N)ncnc43)[C@H](F)[C@@H]2O1 |  |  |  |  |  |  | 240 | 50 | 70 | 180 | 440 | 70 | Ratio EC50 [12]: 110; EC50 [17]: 40 nM; half-life [18]: < 2 min; Ratio EC50 [19]: 115; half-life [20]: 1 h
5 | Nc1ncnc2c1ncn2[C@@H]1O[C@@H]2COP(=O)(O)O[C@H]3[C@@H](F)[C@H](n4cnc5c(N)ncnc54)O[C@@H]3COP(=O)(O)O[C@H]2[C@H]1F |  | 180 | 130 | 20 | 140 |  | 12800 | 1030 | 96500 | 19100 | 51000 | 8230 | EC50 [17]: 7990 nM
6 | Nc1ncnc2c1ncn2[C@@H]1O[C@@H]2CO[P@@](=O)(S)O[C@H]3[C@@H](F)[C@H](n4cnc5c(N)ncnc54)O[C@@H]3CO[P@](=O)(S)O[C@H]2[C@H]1F |  | 360 | 50 | 20 | 210 | 11.2 | 7290 | 310 | 520 | 3030 | 17700 | 11200 | ΔTm [8]: 11.2 °C
7 | [3H]c1nc2c(N)ncnc2n1[C@@H]1O[C@@H]2CO[P@@](=O)(OCOC(=O)C(C)(C)C)O[C@H]3[C@@H](F)[C@H](n4c([3H])nc5c(N)ncnc54)O[C@@H]3CO[P@](=O)(OCOC(=O)C(C)(C)C)O[C@H]2[C@H]1F |  |  |  |  |  |  |  |  |  |  |  |  | Drug uptake [21]: Active; Drug metabolism [22]: Metabolite_Notdetected; Drug metabolism [23]: Metabolite_Detected
8 | Nc1ncnc2c1ncn2[C@@H]1O[C@@H]2CO[P@](=O)(S)O[C@H]3[C@@H](F)[C@H](n4cnc5c(N)ncnc54)O[C@@H]3CO[P@](=O)(S)O[C@H]2[C@H]1F | 260 | 8700 | 880 | 170 | 4070 | 5.5 | 26800 | 7790 | 2280 | 12100 | 29600 | 9870 | 
9 | CC(C)(C)C(=O)OCO[P@]1(=O)OC[C@H]2O[C@@H](n3cnc4c(N)ncnc43)[C@H](F)[C@@H]2O[P@](=O)(OCOC(=O)C(C)(C)C)OC[C@H]2O[C@@H](n3cnc4c(N)ncnc43)[C@H](F)[C@@H]2O1 |  |  |  |  |  |  | 110 | 30 | 30 | 110 | 220 | 60 | Ratio EC50 [12]: 148; EC50 [17]: 20 nM; half-life [18]: < 2 min; Ratio EC50 [19]: 234; half-life [20]: 1.17 h; Ratio EC50 [24]: 279
10 | Nc1ncnc2c1ncn2[C@@H]1O[C@@H]2CO[P@@](=O)(S)O[C@H]3[C@@H](F)[C@H](n4cnc5c(N)ncnc54)O[C@@H]3COP(=O)(O)O[C@H]2[C@H]1F | 40 |  | 100 | 40 | 100 | 14.7 |  |  |  |  |  |  | ΔTm [8]: 14.7 °C
11 | [3H]c1nc2c(N)ncnc2n1[C@@H]1O[C@@H]2CO[P@@](=O)(OCOC(=O)C(C)(C)C)O[C@H]3[C@@H](F)[C@H](n4c([3H])nc5c(N)ncnc54)O[C@@H]3CO[P@@](=O)(OCOC(=O)C(C)(C)C)O[C@H]2[C@H]1F |  |  |  |  |  |  |  |  |  |  |  |  | Drug uptake [21]: Active; Drug metabolism [22]: Metabolite_Notdetected; Drug metabolism [23]: Metabolite_Detected
12 | Nc1ncnc2c1ncn2[C@@H]1O[C@@H]2CO[P@@](=O)(S)O[C@H]3[C@@H](F)[C@H](n4cnc5c(N)ncnc54)O[C@@H]3CO[P@@](=O)(S)O[C@H]2[C@H]1F | 40 | 130 | 80 | 40 | 80 | 15.9 | 9370 | 360 | 7020 | 3560 | 38700 | 6080 | 
